Experimental data taken from publication PMC9519442, “Genotype–phenotype correlations in WHIM syndrome: a systematic characterization of CXCR4^WHIM variants” (Genes and Immunity, 2022).

Tests used:
[1] = biological target: T1, CXCR4 E343K (Homo sapiens, UniProt P61073, E343K); assay: Ca2+ mobilization assay, K562 cells with stable CXCR4 expression; assay type: cell-based; conditions: K562, read-out: Emax (% inhibition) of mavorixafor, Ca2+ mobilization
T1 construct: expressed in transfected cells; host or cells: K562
T1 sequence (P61073 whole entry E343K): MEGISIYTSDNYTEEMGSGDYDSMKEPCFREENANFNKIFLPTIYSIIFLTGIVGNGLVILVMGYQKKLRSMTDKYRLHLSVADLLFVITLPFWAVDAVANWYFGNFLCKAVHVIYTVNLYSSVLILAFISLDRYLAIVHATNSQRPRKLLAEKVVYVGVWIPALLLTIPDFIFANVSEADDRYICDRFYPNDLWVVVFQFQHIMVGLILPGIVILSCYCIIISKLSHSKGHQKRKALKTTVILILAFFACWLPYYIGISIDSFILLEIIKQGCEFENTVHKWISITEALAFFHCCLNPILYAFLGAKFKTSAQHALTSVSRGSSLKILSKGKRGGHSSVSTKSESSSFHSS
Experimental: (§1) Stable K562 clones expressing CXCR4 (1 × 10^5 cells/well) were seeded in black 96-well plates with transparent bottom coated with poly-L-lysine (BioCoat®, Corning) and serum-starved for 24 h. Medium was removed and cells were loaded with 100 µl of fluo-4 AM (3 µM, Invitrogen) dye solution for 45 min at 37 °C. Dye solution was prepared by diluting fluo-4 powder in DMSO + 10% Pluronic F127 (Thermo Fisher Scientific, Waltham, Massachusetts, USA) to 3 mM and then preparing the final dilution in assay buffer (HBSS with Ca^2+ and Mg^2+, 20 mM HEPES, 0.375 g/l NaHCO3, 0.1% BSA + 0.77 g/L probenecid [Thermo Fisher Scientific]). Subsequently, 100 µl of assay buffer alone or assay buffer with compound dilutions was added and the plates were equilibrated in the plate reader for an additional 20 min at 37 °C. Jurkat cells (3 × 10^5 cells/well) were incubated with the Screen Quest Calbryte-520 Probenecid-Free and Wash-Free Calcium Assay Kit (AAT Bioquest, Sunnyvale, California, USA) according to manufacturer’s instructions. […] Raw traces were analyzed in SoftMax Pro 7 Software (Molecular Devices). The arbitrary units were calculated as the difference between maximal and minimal signal after treatment injection, normalized to the baseline signal before injection. Maximal effect (Emax) and half-maximal effective and inhibitory concentrations (EC50 and IC50, respectively) were calculated in Prism (GraphPad Software, San Diego, California, USA).

[2] = biological target: T2, CXCR4 E343X (Homo sapiens, UniProt P61073); assay: as above; assay type: cell-based; conditions: K562, read-out: Emax (% inhibition) of mavorixafor, Ca2+ mobilization
T2 construct: expressed in transfected cells; host or cells: K562
T2 sequence (P61073 1-342 limits assumed): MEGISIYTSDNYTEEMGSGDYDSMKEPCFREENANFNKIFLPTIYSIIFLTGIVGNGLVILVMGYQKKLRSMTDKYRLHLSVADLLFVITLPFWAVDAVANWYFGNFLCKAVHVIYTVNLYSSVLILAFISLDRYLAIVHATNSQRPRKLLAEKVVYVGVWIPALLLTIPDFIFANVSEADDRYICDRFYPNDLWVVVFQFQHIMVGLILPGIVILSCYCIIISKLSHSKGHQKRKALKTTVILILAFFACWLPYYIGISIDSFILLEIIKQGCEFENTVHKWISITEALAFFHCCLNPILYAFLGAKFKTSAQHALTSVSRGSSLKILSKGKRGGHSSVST
Experimental: as §1

[3] = biological target: T3, CXCR4 G336X (Homo sapiens, UniProt P61073); assay: as above; assay type: cell-based; conditions: K562, read-out: Emax (% inhibition) of mavorixafor, Ca2+ mobilization
T3 construct: expressed in transfected cells; host or cells: K562
T3 sequence (P61073 1-335 limits assumed): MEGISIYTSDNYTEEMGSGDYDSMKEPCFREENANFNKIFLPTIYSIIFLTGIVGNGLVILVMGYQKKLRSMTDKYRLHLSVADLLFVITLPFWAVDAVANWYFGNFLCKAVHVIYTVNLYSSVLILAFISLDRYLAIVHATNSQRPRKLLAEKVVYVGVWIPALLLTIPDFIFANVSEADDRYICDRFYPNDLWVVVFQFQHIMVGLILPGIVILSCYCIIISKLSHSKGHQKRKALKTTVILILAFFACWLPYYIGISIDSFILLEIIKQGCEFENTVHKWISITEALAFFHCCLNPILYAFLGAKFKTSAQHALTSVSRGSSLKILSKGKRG
Experimental: as §1

[4] = biological target: T4, CXCR4 L329Q fs*13 (Homo sapiens, UniProt P61073); assay: as above; assay type: cell-based; conditions: K562, read-out: Emax (% inhibition) of mavorixafor, Ca2+ mobilization
T4 construct: expressed in transfected cells; host or cells: K562
T4 sequence (P61073 with tags, fused parts or gaps, stated change not applied): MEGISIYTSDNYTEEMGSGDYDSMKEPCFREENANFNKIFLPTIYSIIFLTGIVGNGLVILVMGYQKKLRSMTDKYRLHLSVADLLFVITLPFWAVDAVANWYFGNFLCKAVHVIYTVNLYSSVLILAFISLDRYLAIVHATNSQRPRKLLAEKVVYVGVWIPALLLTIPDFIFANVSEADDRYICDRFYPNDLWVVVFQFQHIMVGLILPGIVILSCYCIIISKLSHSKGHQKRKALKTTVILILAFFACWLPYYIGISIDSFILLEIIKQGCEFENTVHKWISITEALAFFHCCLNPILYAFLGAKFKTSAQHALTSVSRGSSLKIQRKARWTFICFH
Experimental: as §1

[5] = biological target: T5, CXCR4 R334X (Homo sapiens, UniProt P61073); assay: as above; assay type: cell-based; conditions: K562, read-out: Emax (% inhibition) of mavorixafor, Ca2+ mobilization
T5 construct: expressed in transfected cells; host or cells: K562
T5 sequence (P61073 1-333 limits assumed): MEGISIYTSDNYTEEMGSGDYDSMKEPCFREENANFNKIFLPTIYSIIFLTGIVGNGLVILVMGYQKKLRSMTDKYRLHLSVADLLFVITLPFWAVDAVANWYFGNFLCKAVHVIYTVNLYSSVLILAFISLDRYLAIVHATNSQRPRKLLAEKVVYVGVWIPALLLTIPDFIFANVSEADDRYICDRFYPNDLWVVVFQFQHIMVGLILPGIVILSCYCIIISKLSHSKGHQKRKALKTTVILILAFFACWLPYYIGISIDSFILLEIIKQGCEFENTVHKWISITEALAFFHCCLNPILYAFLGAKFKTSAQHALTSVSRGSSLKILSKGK
Experimental: as §1

[6] = biological target: T6, CXCR4 S319C fs*24 (Homo sapiens, UniProt P61073); assay: as above; assay type: cell-based; conditions: K562, read-out: Emax (% inhibition) of mavorixafor, Ca2+ mobilization
T6 construct: expressed in transfected cells; host or cells: K562
T6 sequence (P61073 with tags, fused parts or gaps, stated change not applied): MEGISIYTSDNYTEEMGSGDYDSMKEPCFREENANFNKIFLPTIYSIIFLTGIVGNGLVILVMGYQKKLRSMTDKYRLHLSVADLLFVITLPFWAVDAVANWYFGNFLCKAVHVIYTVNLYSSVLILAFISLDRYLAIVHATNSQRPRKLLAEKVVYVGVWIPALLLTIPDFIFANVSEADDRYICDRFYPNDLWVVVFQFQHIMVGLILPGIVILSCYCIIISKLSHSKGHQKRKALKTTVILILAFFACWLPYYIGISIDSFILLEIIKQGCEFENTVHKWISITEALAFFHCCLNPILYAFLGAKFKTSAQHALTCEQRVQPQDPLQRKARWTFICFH
Experimental: as §1

[7] = biological target: T7, CXCR4 S324V fs*20 (Homo sapiens, UniProt P61073); assay: as above; assay type: cell-based; conditions: K562, read-out: Emax (% inhibition) of mavorixafor, Ca2+ mobilization
T7 construct: expressed in transfected cells; host or cells: K562
T7 sequence (P61073 with tags, fused parts or gaps, stated change not applied): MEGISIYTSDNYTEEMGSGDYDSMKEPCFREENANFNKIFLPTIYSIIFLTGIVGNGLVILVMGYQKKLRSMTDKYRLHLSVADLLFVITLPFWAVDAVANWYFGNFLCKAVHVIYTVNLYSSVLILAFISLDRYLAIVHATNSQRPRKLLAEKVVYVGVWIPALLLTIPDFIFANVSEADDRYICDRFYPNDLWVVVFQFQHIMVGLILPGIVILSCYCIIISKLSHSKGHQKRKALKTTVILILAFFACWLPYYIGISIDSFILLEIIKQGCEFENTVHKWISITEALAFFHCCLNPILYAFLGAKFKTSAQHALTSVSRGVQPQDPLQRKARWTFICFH
Experimental: as §1

[8] = biological target: T8, CXCR4 S338X (Homo sapiens, UniProt P61073); assay: as above; assay type: cell-based; conditions: K562, read-out: Emax (% inhibition) of mavorixafor, Ca2+ mobilization
T8 construct: expressed in transfected cells; host or cells: K562
T8 sequence (P61073 1-337 limits assumed): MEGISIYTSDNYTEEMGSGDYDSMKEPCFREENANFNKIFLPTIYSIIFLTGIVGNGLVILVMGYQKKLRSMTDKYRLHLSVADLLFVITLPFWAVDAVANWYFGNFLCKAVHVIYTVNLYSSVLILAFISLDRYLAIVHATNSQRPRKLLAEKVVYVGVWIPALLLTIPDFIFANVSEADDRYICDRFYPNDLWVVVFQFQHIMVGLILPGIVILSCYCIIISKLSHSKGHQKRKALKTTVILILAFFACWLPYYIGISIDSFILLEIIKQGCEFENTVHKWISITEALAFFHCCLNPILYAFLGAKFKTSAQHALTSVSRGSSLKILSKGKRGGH
Experimental: as §1

[9] = biological target: T9, CXCR4 S339C fs*4 (Homo sapiens, UniProt P61073); assay: as above; assay type: cell-based; conditions: K562, read-out: Emax (% inhibition) of mavorixafor, Ca2+ mobilization
T9 construct: expressed in transfected cells; host or cells: K562
T9 sequence (P61073 with tags, fused parts or gaps, stated change not applied): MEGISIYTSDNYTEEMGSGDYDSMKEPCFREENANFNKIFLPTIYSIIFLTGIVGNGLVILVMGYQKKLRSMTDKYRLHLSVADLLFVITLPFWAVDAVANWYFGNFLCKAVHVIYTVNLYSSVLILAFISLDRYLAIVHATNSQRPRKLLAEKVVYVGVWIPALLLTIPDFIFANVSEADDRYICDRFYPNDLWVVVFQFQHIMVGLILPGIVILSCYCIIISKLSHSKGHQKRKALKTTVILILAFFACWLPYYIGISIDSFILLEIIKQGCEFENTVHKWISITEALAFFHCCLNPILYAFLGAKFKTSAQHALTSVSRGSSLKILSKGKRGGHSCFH
Experimental: as §1

[10] = biological target: T10, CXCR4 S339F fs*6 (Homo sapiens, UniProt P61073); assay: as above; assay type: cell-based; conditions: K562, read-out: Emax (% inhibition) of mavorixafor, Ca2+ mobilization
T10 construct: expressed in transfected cells; host or cells: K562
T10 sequence (P61073 with tags, fused parts or gaps, stated change not applied): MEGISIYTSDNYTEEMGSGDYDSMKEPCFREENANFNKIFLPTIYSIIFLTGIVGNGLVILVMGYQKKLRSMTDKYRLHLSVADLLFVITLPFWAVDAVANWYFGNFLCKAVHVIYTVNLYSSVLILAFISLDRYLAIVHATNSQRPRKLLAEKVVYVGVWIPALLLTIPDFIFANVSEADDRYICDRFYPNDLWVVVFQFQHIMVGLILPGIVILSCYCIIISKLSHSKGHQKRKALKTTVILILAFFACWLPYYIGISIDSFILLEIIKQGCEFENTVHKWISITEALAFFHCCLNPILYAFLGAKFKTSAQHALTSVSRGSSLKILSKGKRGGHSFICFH
Experimental: as §1

[11] = biological target: T11, CXCR4 S341P fs*25 (Homo sapiens, UniProt P61073); assay: as above; assay type: cell-based; conditions: K562, read-out: Emax (% inhibition) of mavorixafor, Ca2+ mobilization
T11 construct: expressed in transfected cells; host or cells: K562
T11 sequence (P61073 with tags, fused parts or gaps, stated change not applied): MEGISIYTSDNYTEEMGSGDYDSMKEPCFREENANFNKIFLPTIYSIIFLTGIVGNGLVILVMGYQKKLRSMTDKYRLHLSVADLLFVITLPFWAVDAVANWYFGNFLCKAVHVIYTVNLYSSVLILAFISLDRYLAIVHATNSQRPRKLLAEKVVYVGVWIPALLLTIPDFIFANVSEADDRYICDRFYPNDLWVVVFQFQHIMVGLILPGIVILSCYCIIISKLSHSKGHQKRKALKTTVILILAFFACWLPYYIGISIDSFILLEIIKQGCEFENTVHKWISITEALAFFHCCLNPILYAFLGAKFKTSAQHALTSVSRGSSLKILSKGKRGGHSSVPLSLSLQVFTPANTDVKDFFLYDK
Experimental: as §1

[12] = biological target: T12, CXCR4 T318P fs*3 (Homo sapiens, UniProt P61073); assay: as above; assay type: cell-based; conditions: K562, read-out: Emax (% inhibition) of mavorixafor, Ca2+ mobilization
T12 construct: expressed in transfected cells; host or cells: K562
T12 sequence (P61073 with tags, fused parts or gaps, stated change not applied): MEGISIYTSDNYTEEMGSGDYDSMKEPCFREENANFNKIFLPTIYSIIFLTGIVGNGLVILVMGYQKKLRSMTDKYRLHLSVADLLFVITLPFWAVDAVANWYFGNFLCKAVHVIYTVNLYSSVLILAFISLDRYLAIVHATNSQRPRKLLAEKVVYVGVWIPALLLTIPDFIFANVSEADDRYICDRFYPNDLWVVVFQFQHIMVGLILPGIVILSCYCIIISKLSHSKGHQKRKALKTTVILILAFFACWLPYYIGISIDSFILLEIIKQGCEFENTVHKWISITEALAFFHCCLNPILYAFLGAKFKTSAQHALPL
Experimental: as §1

[13] = biological target: T13, CXCR4 V320E fs*23 (Homo sapiens, UniProt P61073); assay: as above; assay type: cell-based; conditions: K562, read-out: Emax (% inhibition) of mavorixafor, Ca2+ mobilization
T13 construct: expressed in transfected cells; host or cells: K562
T13 sequence (P61073 with tags, fused parts or gaps, stated change not applied): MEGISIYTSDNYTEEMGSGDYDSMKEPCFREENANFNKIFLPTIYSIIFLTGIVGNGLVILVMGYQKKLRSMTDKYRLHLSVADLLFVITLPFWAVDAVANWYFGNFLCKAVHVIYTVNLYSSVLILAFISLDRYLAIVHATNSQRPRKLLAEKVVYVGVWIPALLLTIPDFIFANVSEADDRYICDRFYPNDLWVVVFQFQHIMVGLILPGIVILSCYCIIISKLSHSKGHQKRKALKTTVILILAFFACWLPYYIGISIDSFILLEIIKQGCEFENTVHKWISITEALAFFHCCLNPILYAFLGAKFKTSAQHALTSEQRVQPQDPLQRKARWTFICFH
Experimental: as §1

[14] = biological target: T14, WT CXCR4 (Homo sapiens, UniProt P61073); assay: as above; assay type: cell-based; conditions: K562, read-out: Emax (% inhibition) of mavorixafor, Ca2+ mobilization
T14 construct: cloned into pcDNA3.1(Hygro+) via NheI/EcoRV to give pcDNA3.1_CXCR4; expressed in transfected cells; host or cells: K562
T14 sequence (P61073 whole entry): as the sequence (P61073 whole entry E343K) above, with K343E counted along it
Experimental: as §1

[15] = biological target: all CXCR4^WHIM variants (Homo sapiens, UniProt P61073); assay: Ca2+ mobilization assay, K562 cells, pooled over variants; assay type: cell-based; conditions: K562, read-out: Emax of mavorixafor, Ca2+ mobilization, range over variants
Experimental: as §1, with “°C.” for “°C. Jurkat cells (3 × 10^5 cells/well) were incubated with the Screen Quest Calbryte-520 Probenecid-Free and Wash-Free Calcium Assay Kit (AAT Bioquest, Sunnyvale, California, USA) according to manufacturer’s instructions.”

[16] = biological target: CXCR4 (WT/WT, RX/WT, RX/RX) (Homo sapiens, UniProt P61073); assay: Ligand binding inhibition assay (AF647-CXCL12), Jurkat cells, across all cell lines
CXCR4 (WT/WT, RX/WT, RX/RX), sequence (P61073 1-333 limits assumed): as the sequence (P61073 1-333 limits assumed) above
Experimental: Jurkat cells were washed once with assay buffer (HBSS + 20 mM HEPES buffer +0.2% BSA, pH 7.4) and then incubated for 15 min at room temperature with test compound diluted in assay buffer at dose-dependent concentrations. […] The cells were incubated for 30 min at room temperature. Thereafter, the cells were washed twice in assay buffer, fixed with 1% paraformaldehyde in PBS, and analyzed by flow cytometry (Cytoflex). […] The percentage of inhibition was calculated according to the formula: [1-((MFI-MFINC)/(MFIPC-MFINC))]*100 where MFI is the mean fluorescence intensity of cells in the presence of an inhibitor, MFINC is mean fluorescence intensity of cells in the absence of the ligand and MFIPC is mean fluorescence intensity of cells in the presence of the ligand alone.

[17] = biological target: T15, R334X/R334X CXCR4 (RX/RX Jurkat cells) (Homo sapiens, UniProt P61073); assay: ERK activation assay (phosphoflow p-T202/Y204 ERK), Jurkat cells; assay type: cell-based; conditions: 10 nM CXCL12 for 5 min
T15 construct: a cellular model of homozygous and heterozygous R334X CXCR4 in an endogenous locus; host or cells: Jurkat (E6-1, ATCC), CRISPR-Cas9 clones A3 and B5 (RX/RX)
T15 sequence (P61073 1-333 limits assumed): as above
Experimental: (§2) Stable K562 clones expressing CXCR4 or Jurkat cells were seeded in starvation medium in 96-well plates overnight. After treatment, the cells were fixed with fixation solution (eBioscience, Thermo Fisher Scientific, Waltham, Massachusetts, USA) for 10 min at room temperature, then permeabilized for 5 min with ice-cold methanol on ice followed by a washing step with wash/permeabilization solution (eBioscience, Thermo Fisher Scientific, Waltham, Massachusetts, USA). Cells were then stained with Alexa Fluor 647 Mouse Anti-ERK1/2 (Product code 612593, pT202/pY204, 1/10 dilution, BD Biosciences) and Alexa Fluor 488 Mouse anti-Akt (Product code 560404, pS473, 1/10 dilution, BD Biosciences) for 1 h at room temperature in the dark. Cells were then washed 2 times in wash/permeabilization solution and resuspended in flow buffer (HBSS with Ca^2+ and Mg^2+ + 0.1% BSA + 20 mM HEPES pH 7.4). Samples were measured via flow cytometry (CytoFLEX Flow Cytometer) and analyzed in FCS Express software. After gating cells based on the FCS/SSC, MFI of the respective staining was exported for further analysis.

[18] = biological target: T16, R334X/WT CXCR4 (RX/WT Jurkat cells) (Homo sapiens, UniProt P61073); assay: as above; assay type: cell-based; conditions: 10 nM CXCL12 for 5 min
T16 construct: cells endogenously expressing WT, R334X/WT or R334X/R334X CXCR4 at similar levels; endogenous in cells; host or cells: Jurkat E6-1 clone B2 (CRISPR-Cas9 edited, made at Applied StemCell)
T16 sequence (P61073 1-333 limits assumed): as above
T16 sequence (P61073 whole entry): as the sequence (P61073 whole entry E343K) above, with K343E counted along it
Experimental: as §2

[19] = biological target: CXCR4 (WT/WT, RX/WT, RX/RX Jurkat cells) (Homo sapiens, UniProt P61073); assay: ERK activation assay (phosphoflow), all Jurkat cell lines tested; assay type: cell-based; conditions: 40 nM, 200 nM or 1 µM mavorixafor, 10 nM CXCL12 for 5 min
CXCR4 (WT/WT, RX/WT, RX/RX Jurkat cells), sequence (P61073 1-333 limits assumed): as the sequence (P61073 1-333 limits assumed) above
Experimental: as §2

[20] = system: WT CXCR4 and CXCR4^WHIM variants; assay: ERK activation assay (phosphoflow p-T202/Y204 ERK), K562 cells with stable CXCR4 expression; assay type: cell-based, human; conditions: 40 nM, 200 nM or 1 µM mavorixafor, 10 nM CXCL12 for 5 min
Experimental: as §2

[21] = system: WT CXCR4 and CXCR4^WHIM variants; assay: AKT activation assay (phosphoflow p-S473 AKT), K562 cells with stable CXCR4 expression; assay type: cell-based, human; conditions: 40 nM, 200 nM or 1 µM mavorixafor, 10 nM CXCL12 for 5 min
Experimental: as §2

NCCCCN(Cc1nc2ccccc2[nH]1)[C@H]1CCCc2cccnc21 [mavorixafor]
Emax [1]: 66%
Emax [2]: 90%
Emax [3]: 82%
Emax [4]: 51%
Emax [5]: 72%
Emax [6]: 76%
Emax [7]: 58%
Emax [8]: 89%
Emax [9]: 77%
Emax [10]: 59%
Emax [11]: 57%
Emax [12]: 88%
Emax [13]: 65%
Emax [14]: 84%
Emax [15]: 51 to 90%
Efficacy of inhibition of CXCL12 binding to CXCR4 [16]: 100%
Concentration that normalized the hyperactive ERK signaling [17]: 200 nM
Concentration that normalized the hyperactive ERK signaling [18]: 40 nM
Effect on CXCL12-stimulated ERK activation [19]: inhibited
Effect on CXCL12-dependent ERK activation [20]: inhibited
Effect on CXCL12-dependent AKT activation [21]: inhibited
